Laboratory results from ChEMBL document CHEMBL1153593, “Recent developments in the design and synthesis of hybrid molecules based on aminoquinoline ring and their antiplasmodial evaluation” (Eur J Med Chem, 2009).
≈ marks a conversion by molar mass, not a printed value.

How the values were obtained:
Plasmodium falciparum [1] = test: Antimalarial activity against chloroquine-resistant Plasmodium falciparum TM91C235; type: functional, organism-based
Plasmodium falciparum [2] = test: Antimalarial activity against chloroquine-sensitive Plasmodium falciparum D6; type: functional, organism-based
[3] = Cytotoxicity against human MRC5 cells; type: cell-based; conditions: read-out: CD50 (the source's name)
Plasmodium falciparum [4] = test: Antimalarial activity against Plasmodium falciparum FcB1/Columbia erythrocytes […]; type: functional, organism-based
[5] = Selectivity index, ratio of CD50 for human MRC5 cells to IC50 for Plasmodium falciparum FcB1/Columbia erythrocytes; type: functional
Plasmodium falciparum [6] = test: Antimalarial activity against Plasmodium falciparum FcB1R; conditions: read-out: ED50 (the source's name)
Plasmodium falciparum [7] = test: Antimalarial activity as relative mean survival time against Plasmodium falciparum at 40 mg/kg for 4 days; type: functional; conditions: 96 h

`CC(C)(C)NCc1c(Nc2ccnc3ccc(Cl)cc23)cc(O)cc1-c1ccc(Cl)cc1` gave an IC50 (Plasmodium falciparum [1]) of 0.3 ng/mL (≈ 0.643 nM) and an IC50 (Plasmodium falciparum [2]) of 0.3 ng/mL (≈ 0.643 nM).
In the case of `CCCCCCCNCCCN1CCN(CCCNc2ccnc3cc(Cl)ccc23)CC1`, the CC50 [3] is reported as < 3100 nM, the IC50 (Plasmodium falciparum [4]) is reported as 9.5 nM and the “Selectivity Index” value [5] is reported as <326.
With `O=C(CN1CCCCC1)Nc1cc(COC(=O)CCCCCC2=CC(=O)c3ccccc3C2=O)cc(Nc2ccnc3ccc(Cl)cc23)c1` the EC50 (Plasmodium falciparum [6]) was 23 nM and the survival at 40 mg/kg (Plasmodium falciparum [7]) was 178%.
